In the supplement of paper PMC12317010:

Assay: collision cross section in nitrogen (drift tube, single-field); higher = larger gas-phase ion size
[1] = ion source: ESI, ion mode: Positive, ion type: [M]+ (permanent cation)
[2] = ion type: [M+H], ion source: APCI, ion mode: Positive
[3] = ion type: [M+H], ion source: ESI, ion mode: Positive
[4] = ion type: [M+Na], ion source: ESI, ion mode: Positive
[5] = ion type: [M-H], ion source: ESI, ion mode: Negative
[6] = ion type: [M+], ion source: APCI, ion mode: Positive
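Also: chemical standards at 10 µM analysed by drift tube IMS-QTOF MS in about 3.95 torr nitrogen, mean of duplicate injections differing ≤1%, mass error below 10 ppm.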

Row | collision cross section in nitrogen [1] [Å²] | collision cross section in nitrogen [2] [Å²] | collision cross section in nitrogen [3] [Å²] | collision cross section in nitrogen [4] [Å²] | collision cross section in nitrogen [5] [Å²] | collision cross section in nitrogen [6] [Å²] | collision cross section in nitrogen (ion source: APCI, ion mode: Positive, ion type: [M]+ (permanent cation)) [Å²] | SMILES
1 | 143.3 | – | – | – | – | – | – | C=C(C)C(=O)NCCC[N+](C)(C)C
2 | – | 211.8 | 211.5 | 203.4 | – | – | – | CC(C)(C)c1csc(-c2cc3cc(OCc4ccccc4CC(=O)O)ccc3o2)n1
3 | – | 196.9 | – | 191.5 | 201 | – | – | CC(C)(O)c1ccc(CNC(=O)c2cccnc2Oc2ccc3nonc3c2)cc1
4 | – | 201.1 | – | 190.4 | 196.7 | – | – | CC(C)(O)c1ccc(CNC(=O)c2cccnc2Oc2ccc(F)cc2)cc1
5 | – | 177.3 | 177 | 196.3 | 178.7 | – | – | CC(C)c1nnc2ccc(-c3ocnc3-c3cc(F)ccc3F)cn12
6 | – | 190.8 | 190.6 | 186.3 | – | – | – | Cc1oc(-c2ccccc2)nc1CCOc1cccc2c1ccn2CCC(=O)O
7 | – | 180.2 | 180 | – | 181.1 | 180.3 | – | Cc1[nH]nc2c1N=C(c1ccccc1Cl)c1cc([N+](=O)[O-])ccc1N2
8 | – | 184.3 | 184.3 | 181.8 | 193.9 | 190.7 | – | Cc1nc(-c2ccccn2)ncc1C(=O)Nn1cc(C)c2cc(F)ccc21
9 | – | 192.3 | 192.4 | 199.7 | 199.2 | – | – | Cc1ncc([C@@H](CCCCCCc2ccc3c(n2)NCCC3)CC(=O)O)cn1
10 | – | 206 | 205.4 | – | 213.8 | – | – | CCc1nn(C2CCCCC2)c2cc([C@]3(C#N)CC[C@@H](C(=O)O)CC3)ccc12
11 | – | 245 | 244.1 | 240.5 | 248.6 | 239.9 | – | CCCC[C@H]1CN(CC2CCOCC2)C(=O)OC12CCN(C1(C)CCN(C(=O)c3c(C)ncnc3C)CC1)CC2
12 | – | 197 | 196.8 | 205.8 | 204.3 | – | – | CCCCc1nc2cccnc2n1Cc1ccc(-c2ccccc2-c2nnn[nH]2)cc1
13 | – | 209 | 199.1 | 201 | – | – | – | CCCN(C1CCN(C(=O)C2CCNCC2)CC1)[C@@H]1CCc2ccc(OC)cc2C1
14 | – | 186.4 | 186.4 | 194.8 | – | – | – | CCN(C(=O)c1cc(C)cc(OC[C@H](C)Nc2ccncc2)c1)C(C)C
15 | – | 196.9 | 197 | 198.8 | – | – | – | CCN(CC)CCNc1ccc(CNC=O)c2sc3ccc(OC)cc3c(=O)c12
16 | – | 170.8 | 170.3 | – | 172.9 | – | – | CCn1nc(C)c2c1C(=O)NCC(c1ccc(O)cc1)=N2
17 | – | 192.3 | 192.2 | 198.6 | 194.5 | – | – | CCOC(=O)COc1ccc2c(c1)CC(NCC(O)c1cccc(Cl)c1)CC2 (stereo unspecified)
18 | – | 212.8 | 231.4 | 230.3 | 225.6 | – | – | CCOC(=O)c1ccc([C@H]2CC[C@H](NC[C@H](O)COc3ccc(O)c(NS(C)(=O)=O)c3)CC2)cc1
19 | – | 184.3 | 183.9 | 187 | 183.9 | – | – | CCOc1ccc2[nH]cc(C(=O)NCc3ccccc3)c(=O)c2n1
20 | – | 228.4 | 228.8 | 233.2 | 232.5 | – | – | CCOc1cccc(-n2cc(C(=O)N3CCN(c4cc(C(=O)O)c5ccccc5c4)CC3)nc2-c2ccc(C)cc2)c1
21 | – | 208.4 | 208.2 | 214.4 | – | – | – | CC[C@H]1CC[C@H](NCc2cc3c(cc2OC)[C@H]2C[C@H]2C(=O)N3C)[C@H](c2ccccc2)N1
22 | – | 245.7 | 244.6 | 246.4 | 232.7 | – | – | Cc1cc(F)ccc1-c1cc(N2CC[C@@H](O)[C@H]2CO)ncc1N(C)C(=O)C(C)(C)c1cc(C(F)(F)F)cc(C(F)(F)F)c1
23 | – | 244.9 | 245.5 | 241.3 | – | – | – | CN(C)C(=O)C1(N2CCCCC2)CCN(CC[C@@]2(c3ccc(Cl)c(Cl)c3)CN(C(=O)c3ccccc3)CCO2)CC1
24 | – | 252.9 | 252.5 | 256.5 | 246.6 | – | – | CN(C)C(=O)NC1(c2ccccc2)CCN(CCC[C@]2(c3ccc(Cl)c(Cl)c3)CCCN(C(=O)c3ccccc3)C2)CC1

Row | collision cross section in nitrogen [1] [Å²] | collision cross section in nitrogen [2] [Å²] | collision cross section in nitrogen [3] [Å²] | collision cross section in nitrogen [4] [Å²] | collision cross section in nitrogen [5] [Å²] | collision cross section in nitrogen [6] [Å²] | collision cross section in nitrogen (ion source: APCI, ion mode: Positive, ion type: [M]+ (permanent cation)) [Å²] | SMILES
25 | – | 241.2 | 241.6 | 243 | – | – | – | CN(C)C(=O)NC1(c2ccccc2)CCN(CC[C@@]2(c3ccc(F)c(F)c3)CN(C(=O)c3ccccc3)CCO2)CC1
26 | 262.3 | – | – | – | – | – | 260.7 | CN(C[C@@H](CC[N+]12CCC(C3CCCCC3)(CC1)CC2)c1ccc(Cl)c(Cl)c1)C(=O)c1cc(C(F)(F)F)cc(C(F)(F)F)c1
27 | – | 219.5 | 218.9 | 219.1 | 220.2 | 215.4 | – | CN1C(=O)N(c2ccccc2Br)Cc2cnc(Nc3ccc4c(c3)OCC(CO)O4)nc21 (stereo unspecified)
28 | – | 189.6 | 189.1 | 200.2 | 190.8 | – | – | Cc1ccccc1N=Nc1ccc(NC(=O)c2ccnn2C)c(C)c1
29 | – | 216.1 | 216.2 | 223.6 | – | – | – | CNC(=O)[C@H]1O[C@@H](n2cnc3c(NCc4cc(Cl)ccc4OCc4cc(C)no4)ncnc32)[C@H](O)[C@@H]1N
30 | – | 182.7 | 183.3 | 190.7 | – | – | – | COc1ccc(OC(F)(F)F)cc1CN[C@H]1CCCN[C@H]1c1ccccc1
31 | – | 207 | 206.7 | 206.2 | 210.8 | – | – | COc1ccc(C(=O)Nc2nc3ccccc3c(NCc3ccccc3)c2C#N)cc1
32 | – | 234.1 | 235.6 | 239.2 | 235.2 | – | – | COCCOc1cc2cc(C(=O)NC3CCN(C(C)C)CC3)n(CC(=O)Nc3ccc(Cl)cn3)c2cn1
33 | – | 258.5 | 258.2 | 259.5 | 258.7 | – | – | COc1cc(-c2nc(NC(=O)c3cc4cc(C)cc(C)c4n3CC(=O)O)sc2CCC2CCCCC2)c(OC)cc1Cl
34 | – | 266.1 | 267 | 277.4 | 271.5 | – | – | COc1ccc2cc(S(=O)(=O)N[C@H](CC(=O)N[C@H](Cc3ccc(CN4[C@H](C)CCC[C@@H]4C)cc3)C(=O)N(C)C(C)C)c3ccc4c(c3)OCO4)ccc2c1
35 | – | 185.2 | 185.6 | 196.9 | – | – | – | COc1cccc(-c2ccc(/C=C\CN3CCCCCC3)cc2Cl)c1
36 | – | 191.2 | 190.4 | 183.4 | 192.5 | – | – | Cc1nc(C)nc(N2C[C@@H](C)N(c3ccnc([C@@H](C)O)n3)[C@@H](C)C2)n1
37 | – | 202.2 | 202.4 | 205.3 | 209.3 | – | – | Cc1cc(CCN2CCN(c3nsc4ccccc34)CC2)cc2c1NC(=O)CC2(C)C
38 | – | 214.2 | 213.8 | 211 | 209.1 | – | – | Cc1cc2c(cc1C(F)(F)F)N(C(=O)Nc1ccc(Oc3cccnc3C)nc1)CC2
39 | – | 225.5 | 224.8 | 236.2 | 226.8 | – | – | Cc1nc(-c2ccc3c(c2)CCN(CCC2CCC(NC(=O)/C=C/c4ccc(F)cc4)CC2)CC3)no1 (stereo unspecified)
40 | – | 196.7 | 196.8 | 188.1 | – | – | – | Cc1nccn1-c1ccc(Sc2cccc(C3(C(N)=O)CCOCC3)c2)cc1
41 | – | 158.5 | 159.3 | – | – | – | – | Clc1cc(Cl)c2c(c1)N=C1CCCCCN1C2
42 | – | 192.8 | 192.4 | 205.6 | 193.4 | – | – | Cn1c(=O)cc(Oc2ccc(F)cc2F)c2cnc(NCC(C)(C)O)nc21
43 | – | 145.7 | 146.3 | 148.3 | – | – | – | N=C(N)NC(=N)NCCc1ccccc1
44 | – | 189.4 | 189.1 | 190.9 | 195.5 | – | – | NC(=O)c1nc(-c2cccc(-c3cc(F)ccc3OCC(F)(F)C(F)(F)F)c2)n[nH]1
45 | – | 214.3 | 213.7 | 213.7 | – | – | – | O=C1c2ccccc2C(=O)N1CCc1noc(-c2ccc(CN3CCCCCC3)s2)n1
46 | – | 201.3 | 200.4 | 205.9 | 202.6 | – | – | O=C(O)c1cccc(N(Cc2cccnc2)c2ccc(OC(F)F)c(OC(F)F)c2)c1
47 | – | 197.6 | 197.1 | 191 | – | – | – | OCC(CO)n1cnc(-c2ccc(F)cc2)c1-c1ccnc(Oc2ccccc2)n1

Row | SMILES | collision cross section in nitrogen [1] [Å²] | collision cross section in nitrogen [2] [Å²] | collision cross section in nitrogen [3] [Å²] | collision cross section in nitrogen [4] [Å²] | collision cross section in nitrogen [5] [Å²] | collision cross section in nitrogen [6] [Å²] | collision cross section in nitrogen (ion source: APCI, ion mode: Positive, ion type: [M]+ (permanent cation)) [Å²]
48 | CC(C)(c1ccccc1)c1cc(-n2nc3ccccc3n2)c(O)c(C(C)(C)c2ccccc2)c1 | – | 218 | 218 | 223.4 | 222.1 | – | –
49 | CC(C)(O)c1cnn2c(-c3ccc(F)c(-c4c(F)cccc4C#N)c3)cnc2n1 | – | 197.1 | 196.4 | 209.2 | 198.6 | – | –
50 | CC(Cc1ccc(OCC(=O)O)cc1)NCC(O)c1csc(C(F)(F)F)n1 (stereo unspecified) | – | 181.1 | 181.4 | 181.2 | 184.7 | – | –
51 | CCN1CCC2(CC1)COc1cc3c(cc12)N(C(=O)c1ccc(-c2ccc(-c4nnc(C)o4)cc2C)cc1)CC3 | – | 229.6 | 229.1 | 264.1 | – | – | –
52 | COc1cc(C=O)cc2c1[C@H](COC(N)=O)[C@]1(OC(C)=O)ON2C[C@H]2[C@@H]1N2C(C)=O | – | 191.3 | 192.1 | 190.5 | – | – | –
53 | O=C(Nc1ccc2[nH]ccc2c1)c1cc2cc(F)ccc2n1Cc1cccc(F)c1 | – | 195.9 | 195.7 | 202.1 | 193.8 | – | –
54 | Nc1cc2c3c(c1)C(c1ccccc1)=N[C@@H](NC(=O)c1cccnc1)C(=O)N3CC2 | – | 201.2 | 200.1 | 209.2 | – | – | –
55 | O=C(N[C@H]1CN2CCC1CC2)c1ccc2c(c1)OCCO2 | – | 175.9 | 175.7 | – | 177.1 | – | –
56 | OC(Cc1ccccc1Cl)(Cn1cncn1)C1(Cl)CC1 (stereo unspecified) | – | 167.3 | 167 | 184.1 | – | – | –
